Square brackets hold non-standard residues; d marks the D form. Peptide text beside a SMILES is read from it. Nva = CCC[C@H](N)C(=O)O
Experiments:
[1] = molecular target: T1, adiponectin receptor ADIPOR1 (Homo sapiens, UniProt Q96A54); experiment: Kd (uM)
T1 construct: Flag tag (N); made in house; host or cells: SF9 insect cells (baculovirus, pFASTbac1)
Source text: Table printed on a drawing sheet, FIG. 1
Head of the field: Kd (uM)
Where the first naming reader finds the target: description_of_the_figure: dissociation constant values of synthetic peptides (3 peptides from 3rd round, 4 peptides from 4th round) from the adiponectin receptor ADIPOR1

[2] = molecular target: T2, adiponectin receptor 1 (ADIPOR1) (Homo sapiens, UniProt Q96A54); experiment: Surface plasmon resonance (SPR) binding of peptide to immobilized recombinant ADIPOR1; conditions: ADIPOR1 amine-coupled to CM5 chip, running buffer pH 7.4, read-out: dissociation constant (Kd) from ADIPOR1
T2 construct: Flag tag (N); made in house; host or cells: SF9 insect cells (baculovirus, pFASTbac1)
T2 sequence (Q96A54 89-375): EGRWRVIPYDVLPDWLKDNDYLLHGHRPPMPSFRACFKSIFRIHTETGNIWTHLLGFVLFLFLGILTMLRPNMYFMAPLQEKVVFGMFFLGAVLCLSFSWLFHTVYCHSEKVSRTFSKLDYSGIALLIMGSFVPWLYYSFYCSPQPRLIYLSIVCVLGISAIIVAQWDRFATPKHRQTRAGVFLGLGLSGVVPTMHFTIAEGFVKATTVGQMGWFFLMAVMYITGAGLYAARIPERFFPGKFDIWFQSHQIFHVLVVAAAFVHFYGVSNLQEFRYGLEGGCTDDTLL
Source text: The ADIPOR1 protein sequence used was the same as that used for the ADIPOR1 structure analysis, in which 88 amino acids at the N-terminal have been removed. The gene capable of producing the protein sequence was synthesized by codon optimization (IDT). At the time, a BamHI restriction enzyme site, a Flag tag and a TEV protease recognition sequence (ENLYFQG; SEQ ID NO: 11) were inserted at the 5′ end and an EcoRI restriction enzyme site was inserted at the 3′ end in order to facilitate cloning and purify the expressed protein. The obtained gene was inserted into the pFASTbac1 vector required for baculovirus production to perform cloning. The cloned vector was transfected into DH10 bac (Invitrogen) to obtain a bacmid comprising the ADIPOR1 gene through recombination. In order to produce baculovirus, the obtained bacmid was transfected into SF9 cells (5×10^4 cells) using Transfectine (Qiagen), and the baculovirus secreted in a medium was collected after 5 days. Then, a large amount of baculovirus was produced through amplification. The obtained baculovirus was inoculated into SF9 cells (5×10^6 cells/ml) cultured in a 1 L SFM900 medium, and protein was expressed at a temperature of 27° C. for 3 days. The SF9 cells expressing recombinant ADIPOR1 were obtained through centrifugation. The obtained cell pellets were aliquoted and stored at −80° C., and used in protein purification as needed to minimize the disadvantages of membrane proteins, which have the possibility of inactivation due to storage after purification. The ADIPOR1, which is a membrane protein expressed on a cell membrane, was solubilized using a detergent (1% DDM) for purification. The dissolved sample was reacted with anti-Flag antibody bead (Sigma) for 1 hour in ice. Then, ADIPOR1 bound to the anti-Flag antibody bead was eluted with Flag peptide. The primarily purified ADIPOR1 was subjected to size exclusion chromatography (Supderdex200, GE healthcare) to obtain only monomeric, proteins. […]
In order to analyze the binding force between peptide and ADIPOR1, a purified recombinant ADIPOR1 (A88) was bound to a CM5 chip with 3000 RU or higher through amine coupling. […] The affinity value was calculated using the affinity fitting or kinetics fitting method. […] The peptide concentrations were calculated by measuring the […] and A280 absorbance of each peptide.
With reference to FIGS. 3 and 4, surface plasmon resonance (SPR) experiments were performed in the present invention to measure the dissociation constant between the agonist peptide and the adiponectin receptor, particularly adiponectin receptor 1 (ADIPOR1). First, an expressed and purified adiponectin receptor ADIPOR1 was immobilized and its dissociation constant from candidate peptides was measured over a total of 4 rounds.

[3] = test system: AMPK phosphorylation in HepG2 cell line; experiment: Western blotting of AMPK phosphorylation in HepG2 cell line; format: cell-based; conditions: HepG2, 5 h starvation, 30 min treatment; tested at 20, 4 and 0.8 uM
Procedure: (§1) C2C12 and HepG2 cells were purchased from ATCC. Before use, they were cultured in a DMEM (Hyclone) medium supplemented with 10% FBS (Hyclone) and 1% penicillin/streptomycin in an incubator at 37° C. in a 5% CO2 environment.
(§2) Based on the prior finding, after optimization of the number of the cells to be used for experiment, HepG2 was starved for 5 hours, recovered, and treated with peptide for 30 minutes, and C2C12 was starved for 24 hours and treated with peptide for 10 minutes. The treated cell samples were washed once with cold PBS and lysed for 15 minutes with a RiPA buffer containing a protease inhibitor and a phosphatase inhibitor. After 15 minutes, centrifugation was carried out at 14000 rpm for 5 minutes to collect only proteins. After quantification, 4× sample buffer and 2-ME were added to prepare a sample for western blotting. The western blotting was performed using a conventional western blotting technique. The antibodies of AMPK, p-AMPK, p-AKT, p-ACC and GAPDH were diluted to 1:1000 or 1:2000 depending on the type thereof and imaging was performed with a LAS-4000 instrument.
HepG2 cell line was plated on a 12-well plate at a concentration of 8*10^5 cells/well on the day before the experiment. […]

[4] = test system: AMPK phosphorylation in C2C12 cell line; experiment: Western blotting of AMPK phosphorylation in differentiated C2C12 myotubes; format: cell-based; conditions: 10 min treatment, tested at 20, 4 and 0.8 uM
Procedure: as §1
C2C12 cells were plated in 12 wells. […] Then, the medium was replaced with a differentiation medium in which DMEM is supplemented with 2.5% horse serum and 1% penicillin/streptomycin. Thereafter, differentiation was performed for 5-7 days, replacing the medium with a new differentiation medium every day. The thus-obtained product was used for experiments.
as §2, with “The antibodies of AMPK, p-AMPK, p-AKT, p-ACC and GAPDH were diluted to 1:1000 or 1:2000 depending on the type thereof and imaging was performed with a LAS-4000 instrument.” left out

T1 sequence (Q96A54 whole entry, looked up): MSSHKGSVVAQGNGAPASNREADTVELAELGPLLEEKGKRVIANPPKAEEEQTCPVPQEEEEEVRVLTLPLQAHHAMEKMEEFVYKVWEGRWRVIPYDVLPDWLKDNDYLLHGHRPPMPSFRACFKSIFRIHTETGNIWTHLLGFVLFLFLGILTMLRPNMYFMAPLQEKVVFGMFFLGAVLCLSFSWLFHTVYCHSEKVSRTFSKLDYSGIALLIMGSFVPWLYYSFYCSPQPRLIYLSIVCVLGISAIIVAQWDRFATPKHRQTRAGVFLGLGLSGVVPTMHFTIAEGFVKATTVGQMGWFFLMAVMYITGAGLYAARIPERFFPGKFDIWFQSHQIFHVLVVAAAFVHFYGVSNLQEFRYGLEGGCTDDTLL

Row | Structure (SMILES) | Kd [1] | Kd [2] | also measured
1 | CC[C@H](C)[C@H](NC(=O)[C@H](CC(N)=O)NC(=O)[C@@H]1CCCN1C(=O)[C@H](Cc1c[nH]cn1)NC(=O)[C@H](Cc1ccc(O)cc1)NC(=O)[C@H](C)NC(=O)[C@H](Cc1ccccc1)NC(=O)[C@H](Cc1ccc(O)cc1)NC(=O)[C@@H](N)Cc1ccc(O)cc1)C(=O)N1CCC[C@H]1C(=O)NCC(=O)N[C@@H](CC(C)C)C(=O)N[C@@H](Cc1ccc(O)cc1)C(=O)N[C@@H](Cc1ccc(O)cc1)C(=O)N[C@@H](Cc1ccccc1)C(=O)O [3-1, YYFAYHPNIPGLYYF (SEQ ID NO: 1 where Xaa1 and Xaa13 each is tyrosine)] (H-YYFAYHPNIPGLYYF-OH; N-terminus and C-terminus assumed) | 16 µM | – | –
2 | CC[C@H](C)[C@H](NC(=O)[C@H](CC(N)=O)NC(=O)[C@@H]1CCCN1C(=O)[C@H](Cc1c[nH]cn1)NC(=O)[C@H](Cc1ccc(O)cc1)NC(=O)[C@H](C)NC(=O)[C@H](Cc1ccccc1)NC(=O)[C@H](CO)NC(=O)[C@@H](N)Cc1ccc(O)cc1)C(=O)N1CCC[C@H]1C(=O)NCC(=O)N[C@@H](CC(C)C)C(=O)N[C@@H](Cc1ccc(O)cc1)C(=O)N[C@@H](Cc1ccc(O)cc1)C(=O)N[C@@H](Cc1ccccc1)C(=O)O [4-5, YSFAYHPNIPGLYYF (SEQ ID NO: 7)] (H-YSFAYHPNIPGLYYF-OH; N-terminus and C-terminus assumed) | 24.5 µM | – | –
3 | CCC[C@H](NC(=O)[C@@H]1CCCN1C(=O)[C@@H](NC(=O)[C@H](N)CC(N)=O)[C@@H](C)CC)C(=O)N[C@@H](CC(C)C)C(=O)N[C@@H](Cc1ccc(O)cc1)C(=O)N[C@H](CO)C(=O)N[C@@H](Cc1ccccc1)C(=O)N[C@@H](C)C(=O)N[C@H](CO)C(N)=O [ADP355, H-DAsn-Ile-Pro-Nva-Leu-Tyr-DSer-Phe-Ala-DSer-NH2] (H-[dN]IP[Nva]LY[dS]FA[dS]-NH2) | – | ≥ 100 µM | concentration from which AMPK was phosphorylated [3]: 20 µM; concentration from which AMPK was phosphorylated [4]: 4 µM
4 | CC[C@H](C)[C@H](NC(=O)[C@H](CC(N)=O)NC(=O)[C@@H]1CCCN1C(=O)[C@H](Cc1c[nH]cn1)NC(=O)[C@H](Cc1ccc(O)cc1)NC(=O)[C@H](C)NC(=O)[C@H](Cc1ccccc1)NC(=O)[C@H](Cc1ccc(O)cc1)NC(=O)[C@@H](N)Cc1ccc(O)cc1)C(=O)N1CCC[C@H]1C(=O)NCC(=O)N[C@@H](CC(C)C)C(=O)N[C@@H](Cc1ccc(O)cc1)C(=O)N[C@@H](Cc1ccc(O)cc1)C(=O)N[C@@H](Cc1ccccc1)C(=O)O [peptide 3-1, Tyr-Tyr-Phe-Ala-Tyr-His-Pro-Asn-Ile-Pro-Gly-Leu-Tyr-Tyr-Phe] (H-YYFAYHPNIPGLYYF-OH) | – | ≤ 16 µM | –
5 | CC[C@H](C)[C@H](NC(=O)[C@H](CC(N)=O)NC(=O)[C@@H]1CCCN1C(=O)[C@H](Cc1c[nH]cn1)NC(=O)[C@H](Cc1ccc(O)cc1)NC(=O)[C@H](C)NC(=O)[C@H](Cc1ccccc1)NC(=O)[C@H](Cc1ccc(O)cc1)NC(=O)[C@@H](N)Cc1c[nH]c2ccccc12)C(=O)N1CCC[C@H]1C(=O)NCC(=O)N[C@@H](CC(C)C)C(=O)N[C@@H](Cc1c[nH]c2ccccc12)C(=O)N[C@@H](Cc1ccc(O)cc1)C(=O)N[C@@H](Cc1ccccc1)C(=O)O [peptide 4-3, Trp-Tyr-Phe-Ala-Tyr-His-Pro-Asn-Ile-Pro-Gly-Leu-Trp-Tyr-Phe] (H-WYFAYHPNIPGLWYF-OH) | – | 6 to 10 µM | –
6 | CC[C@H](C)[C@H](NC(=O)[C@H](CC(N)=O)NC(=O)[C@@H]1CCCN1C(=O)[C@H](Cc1c[nH]cn1)NC(=O)[C@H](Cc1ccc(O)cc1)NC(=O)[C@H](C)NC(=O)[C@H](Cc1ccccc1)NC(=O)[C@H](Cc1ccc(O)cc1)NC(=O)[C@@H](N)Cc1ccccc1)C(=O)N1CCC[C@H]1C(=O)NCC(=O)N[C@@H](CC(C)C)C(=O)N[C@@H](Cc1ccccc1)C(=O)N[C@@H](Cc1ccc(O)cc1)C(=O)N[C@@H](Cc1ccccc1)C(=O)O [peptide 4-4, Phe-Tyr-Phe-Ala-Tyr-His-Pro-Asn-Ile-Pro-Gly-Leu-Phe-Tyr-Phe] (H-FYFAYHPNIPGLFYF-OH) | – | 2 to 4.3 µM | –
